Test results taken from US6103709A (priority 1998, dated 2000).
Entries after “also recorded” stand apart in the source; their conditions may differ.

Tests used:
[1] = system: chloride channels in ROS 17/2.8 cells; settings: 1 nM HL in the bath; 1α,25(OH)2 D3 5 nM or less
Description: In each case, at least a 3-min period was allowed after the addition of the analog to the bath for currents to reach a stable amplitude value. […] Anion currents were isolated from inward Ba^2+ currents after blockade of Ca^2+ channels with 100 μM Cd^2+.

[2] = system: MAP-kinase p42^mapk in NB4 cells; assay: MAP-kinase activation (p42mapk phosphorylation) in NB4 cells; assay type: cell-based, human
Description: In order to determine whether MAP-kinase phosphorylation is specific and is altered by 1α,25(OH)2 D3, the time-dependent effects of 1α,25(OH)2 D3 on p42^mapk phosphorylation was examined using human acute promyelocytic leukemia cells (NB4). In this study, the NB4 cells, cultured in 10% charcoal-stripped fetal calf serum (FCS) medium, were treated with 1α,25(OH)2 D3 at 10^-8 M for various time periods. Cells were then extracted and the phosphorylated MAP-kinase was immunoprecipitated with anti-phosphotyrosine antibody and further analyzed by Western blot using the antibodies against p42^mapk.
The lysate was further processed for anti-phosphotyrosine immunoprecipitation. […] After transferring the proteins to the PVDF membrane, the membrane was further incubated with primary anti-p42^mapk antibodies that were (+) or were not (-) pre-exposed to MAP-kinase peptide.
This example describes assays used for measurement of MAP-kinase activity in NB4 cells.
Cell culture of NB4 cells
The cell line is characterized by a translocation involving chromosomes 15 and 17, which is typical of the classical form of APL-M3 in the French-American-British [FAB] classification. NB4 cells were cultured in DMEM/F12 medium with 10% FCS at 5% CO2 balanced air and were routinely passaged as suspension cultures and only passages 8 to 20 were used for each assay.
Immunoprecipitation of Tyrosine-Phosphorylated Proteins
NB4 cells were cultured in 60-mm diameter dishes and treated with 1,25(OH)2 D3 or analogs in 4 ml of DMEM/F12 containing 10% charcoal-stripped FCS.
Insoluble material was removed in a microcentrifuge at 14,000 rpm for 10 min. Protein concentration was determined with a protein assay kit (Bio-Rad Lab, Hercules, Calif.). For immunoprecipitation, the supernatant was incubated with bead-conjugated monoclonal anti-phosphotyrosine antibody overnight at 4° C. The immunoprecipitates containing the tyrosine-phosphorylated proteins were washed four times with freshly-prepared RIPA buffer and further eluted with 2× Laemmli gel buffer.
At this point, the samples were either stored at -20° C. for further use or processed via Western blots. Equal loading of MAP-kinase protein was determined by running the Western blots using polyclonal anti-p42^mapk antibody. For this purpose, samples were aliquoted from each cell extract before immunoprecipitation.
SDS Gel Electrophoresis and Western blot
The membrane was further immunoblotted using a rabbit anti-p42^mapk polyclonal antibody overnight at 4° C. followed by incubation with secondary horseradish peroxidase-conjugated mouse anti-rabbit antibody for 1 hr at 25° C. The phosphorylated MAP-kinase bands were then visualized by enhanced chemiluminescence (ECL). A Ultrascan LX Laser Densitometer (LKB, Bromma, Sweden) scanned the density of the immuno-phosphoprotein bands. The results were normalized by protein loading and further plotted as percent of control of the band density.

VDRmem = assay: Binding to membrane receptor VDRmem; settings: relative to 1α,25(OH)2 D3

SMILES | antagonism of 1α,25(OH)2 D3-stimulated chloride channel opening [1] | antagonism of 1α,25(OH)2 D3-mediated MAP-kinase activation ([2]; HL 10^-9 M with 1α,25(OH)2 D3 at 1, 10 or 100×10^-10 M, 5 min) | stimulation of MAP-kinase by analog alone ([2]; HL alone) | activation of MAP-kinase versus 1α,25(OH)2 D3 ([2]; 1 minute) | activation of MAP-kinase versus 1α,25(OH)2 D3 ([2]; 5 minute) | binding to VDRmem receptor (VDRmem)
C=C1/C(=C\C=C2/CCC[C@]3(C)[C@@H]([C@H](C)CCCC(C)(C)O)CC[C@@H]23)C[C@@H](O)C[C@H]1O [HL] | capable of antagonizing rapid responses; also recorded: inhibit the ability of 1α,25(OH)2 D3 to increase outward currents | antagonist of activation of MAP-kinases; also recorded: capable of antagonizing rapid responses; also recorded: able to block 1α,25(OH)2 D3 | no stimulation of MAP-kinase | – | – | –
C[C@H](CCCC(C)(C)O)[C@H]1CC[C@H]2C3=CC=C4C[C@@H](O)C[C@H](O)[C@@]4(C)[C@@H]3CC[C@]12C [JN] | – | – | – | more than 1α,25(OH)2 D3 | only slightly less active | 105%
